The term Km denotes the substrate concentration at which the rate is half of its maximum. For orientation: kcat means the maximal rate divided by the concentration of active sites.

Data set [1] concerns the target T1, PpKAI2L-K (Physcomitrium patens, UniProt A9S299).
T1 sequence (A9S299 1-270): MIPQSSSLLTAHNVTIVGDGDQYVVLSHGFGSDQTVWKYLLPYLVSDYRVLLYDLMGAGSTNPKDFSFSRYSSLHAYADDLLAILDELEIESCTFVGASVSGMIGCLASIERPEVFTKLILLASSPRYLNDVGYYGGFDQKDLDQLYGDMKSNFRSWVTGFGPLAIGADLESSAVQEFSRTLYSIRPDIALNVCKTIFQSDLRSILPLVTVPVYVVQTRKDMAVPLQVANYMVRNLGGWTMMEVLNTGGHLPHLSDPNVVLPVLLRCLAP
The settings on record: apparent Kd.

Data set [2] addresses AtD14 (Arabidopsis thaliana, UniProt Q9SQR3). The data set can be described thus: biochemical.
In data set [3] the target is T2, PpKAI2L-D (Physcomitrium patens, UniProt A9SSF6).
T2 sequence (A9SSF6 1-271): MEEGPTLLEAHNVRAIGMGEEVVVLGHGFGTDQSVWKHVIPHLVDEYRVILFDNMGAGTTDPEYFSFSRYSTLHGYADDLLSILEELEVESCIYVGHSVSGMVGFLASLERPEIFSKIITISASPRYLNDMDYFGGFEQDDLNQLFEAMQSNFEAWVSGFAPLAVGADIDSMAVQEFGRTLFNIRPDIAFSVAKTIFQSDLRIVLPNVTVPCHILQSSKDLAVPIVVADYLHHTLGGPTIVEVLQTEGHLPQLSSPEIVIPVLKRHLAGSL
The settings on record: apparent Kd.

Data set [4] deals with T3, PpKAI2L-E (Physcomitrium patens, UniProt A9ST85).
T3 sequence (A9ST85 1-270): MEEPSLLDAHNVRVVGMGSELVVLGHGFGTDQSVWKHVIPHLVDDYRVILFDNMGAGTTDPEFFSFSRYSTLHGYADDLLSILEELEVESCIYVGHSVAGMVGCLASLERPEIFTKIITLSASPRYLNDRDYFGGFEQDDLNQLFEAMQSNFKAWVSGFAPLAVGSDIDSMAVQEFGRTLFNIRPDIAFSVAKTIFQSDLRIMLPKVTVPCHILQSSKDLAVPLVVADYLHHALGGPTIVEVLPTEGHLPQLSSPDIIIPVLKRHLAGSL
The settings on record: apparent Kd.

For data set [5], the target named is T4, AtKAI2 (Arabidopsis thaliana, UniProt Q9SZU7).
T4 sequence (Q9SZU7 1-270): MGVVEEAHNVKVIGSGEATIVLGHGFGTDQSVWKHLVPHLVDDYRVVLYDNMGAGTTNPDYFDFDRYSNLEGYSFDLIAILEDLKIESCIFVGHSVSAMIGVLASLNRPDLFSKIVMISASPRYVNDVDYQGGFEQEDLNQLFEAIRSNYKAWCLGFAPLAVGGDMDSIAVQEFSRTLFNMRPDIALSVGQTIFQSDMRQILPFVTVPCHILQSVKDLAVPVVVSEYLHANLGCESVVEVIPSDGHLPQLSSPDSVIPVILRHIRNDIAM
The data set can be described thus: biochemical.

Substrate in data set [6]: CC(=O)Oc1ccc([N+](=O)[O-])cc1
The data set can be described thus: purified protein.

AtD14, sequence (Q9SQR3 whole entry): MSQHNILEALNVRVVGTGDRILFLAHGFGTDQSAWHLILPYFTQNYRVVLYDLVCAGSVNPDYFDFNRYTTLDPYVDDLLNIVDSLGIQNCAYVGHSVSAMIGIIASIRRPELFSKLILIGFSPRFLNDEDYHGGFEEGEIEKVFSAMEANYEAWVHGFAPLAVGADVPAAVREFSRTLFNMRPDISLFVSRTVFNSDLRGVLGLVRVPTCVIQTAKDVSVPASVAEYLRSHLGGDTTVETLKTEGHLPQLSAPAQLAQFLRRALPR

As to `CC1=C[C@H](O/C=C2/C(=O)O[C@@H]3c4ccccc4C[C@H]23)OC1=O` [(+)-GR24], the Kd in data set [1] stood at 107 µM; in data set [2], 22.8 ± 9.27 µM.
As for `CC1=C[C@@H](O/C=C2/C(=O)O[C@H]3c4ccccc4C[C@@H]23)OC1=O` [(-)-GR24], the Kd stood at 92 µM in data set [3]; 39 µM in data set [4]; 41 µM in data set [1]; 94 µM in data set [2]; 45 µM in data set [5].

B1: PpKAI2L-H (Physcomitrium patens) (protein)
chain: MPSPLLSTHNVTVLGNRSDPVVVLGHGLGTDQSVWKYTVPSLVNQNFQVVLYDTMGAGSTETSDFNFKRYSSLQGHVDDLLAILDELEIENCVYVGHSMSGMIGVLASLERPDLFRKLILLSASPRYLNDSSYYGGFEQEDLDQLFSSMRSNFSAWVSGFATAAVGTDIHDEAVQEFSSTFISMRPDVALRTSQFVFQSDFRSILSEVTVPCHIVQSRKDIAVPIEVAEYLRCNLGGWTSVDILQTDGHLPQLSCPELVVPVLLHCIDS
B1: in data set [6], the Km is 2381 ± 644 µM and the kcat is 34.02 ± 5.83 s⁻¹.

B2: AtKAI2 (Arabidopsis thaliana) (protein)
chain: T4 sequence (Q9SZU7 1-270)
Consider B2, for which, in data set [6], the Km worked out at 610.1 ± 36.69 µM and the kcat is 2.647 ± 0.06558 s⁻¹.

The values above are taken from article doi:10.1101/2020.11.24.395954v2 (biorxiv, 2021).
